“Also recorded” adds a separate entry of the source. Where two headings read alike, the source gives them in different places.
How the values were obtained:
[1] = test system: blood-stage Trypanosoma brucei; assay: CellTiter-Glo luminescent assay; format: cell-based
Procedure: The parasites were synchronized using sequential sorbitol lysis treatment, with experiments carried out at least one intra-erythrocytic cycle later. T. brucei single marker (SM) cells were maintained at log phase growth (<1.5×10^6 cells/mL) in HMI-19 media supplemented with 10% FBS (Gibco) and 2.5 μg/mL G418 (Life Technologies) at 37° C. and 5% CO2.
(§1) Compounds were tested against the blood-stage Trypanosoma brucei (48 hr endpoint) and intra-erythrocytic asexual stages Plasmodium falciparum (3D7) using CellTiter-Glo® luminescent and Malaria SYBR green I fluorescence (MSF) assays, respectively. Similar methodology will be used for future experiments.
(§2) MMV676477 was tested against several other parasites: the axenic amastigotes of Leishmania donovani and Leishmania tarentolae, blood-stage Plasmodium falciparum, and Trypanosoma brucei. The compound's activity was measured using alamarBlue®, Malaria SYBR green I fluorescence (MSF) and CellTiter-Glo® luminescent assays. […] In addition, MMV676477 has also been recently reported as having potent activity against Neospora caninum, Cryptosporidium parvum, Toxoplasma gondii, and Entamoeba histolytica.

[2] = test system: intracellular L. amazonensis amastigotes; assay: Intracellular washout assay (LD50); format: cell-based, Leishmania amazonensis
Procedure: Intracellular LD50s were measured. Briefly, RAW 264.7 cells were seeded to 96-multiwell plates at a density of 2×10^5 cells/mL (200 μL) and starved overnight at 37° C. The cells were infected with metacyclic promastigotes at a Multiplicity of Infection (MOI) of 15 and incubated for another 24 h at 37° C. The plates containing infected RAW 264.7 cells/BM primary M #s were washed five times with serum-free DMEM. Serially diluted compounds were added, and plates were incubated at 37° C. for 72 hrs. Wells were washed five times with DMEM, and the RAW 264.7 cells were lysed with 100 μL of 2 mg/mL saponin in DMEM for 5 min at room temperature, and further lysis was stopped with 100% FBS. After centrifugation, 200 μL acidic promastigotes media was replaced, plates were incubated at 26° C. for 96 h. Fluorescence intensity (alamarBlue®) was measured as described above.
All routine in vitro quantification of antileishmanial drug potency is quantification of “cytostatic” potency. […] Therefore, the cytocidal action of MMV676477 was quantified by obtaining an LD50 at 72 h (a Lethal Dose that kills 50% of the bulk population of the parasites relative to untreated control) and compared it to the known cytocidal drug amphotericin. An intracellular washout assay was employed. […] The ratio of LD50:EC50 was calculated for MMV676477 and amphotericin. Lower ratios indicate that the LD50 is similar to the EC50 value, meaning that the estimated EC50 values represent killing of the parasites rather than simple growth inhibition.

[3] = test system: blood-stage P. falciparum (3D7 strain); assay: Malaria SYBR green I fluorescence (MSF) assay; format: cell-based, Plasmodium falciparum
Procedure: (§3) For other parasites, L. donovani, strain MHOM/SD/62/1S-C12D, was grown as previously described. Plasmodium falciparum parasites of the 3D7 strain were cultured in RPMI 1640 medium supplemented with 37.5 mM HEPES, 10 mM D-glucose, 2 mM L-glutamine, 100 μM hypoxanthine, 25 μg/mL gentamicin, 4% (v/v) human serum and 0.25% (v/v) Albumax II, at a 2% haematocrit in an atmosphere of 1% 02, 3% CO2 and 96% N2. Staging and parasitemia of the in vitro culture were assessed by light microscopy of Giemsa-stained thin blood smears.
as §1, §2

[4] = test system: L. donovani axenic amastigotes; assay: alamarBlue assay, L. donovani axenic amastigotes; format: cell-based, Leishmania donovani
Procedure: as §3
Leishmania amazonensis axenic amastigotes (100 μL, 2×10^6 cells/mL) were added to 96-multiwell plates containing 100 μL of amastigote culture medium with an appropriate compound dilution series. 0.1% DMSO (no drug) served as a positive control (100%), and 5 μM amphotericin B served as a negative growth control (0%). Only internal wells were used to minimize edge effects from evaporation. […] Similarly, the cytotoxicity of each compound was determined against RAW 264.7 cells and HepG2 cell lines, following 72 h incubation at 37° C. […]
MMV676477 was tested against several other parasites: the axenic amastigotes of Leishmania donovani and Leishmania tarentolae, blood-stage Plasmodium falciparum, and Trypanosoma brucei. The compound's activity was measured using alamarBlue®, Malaria SYBR green I fluorescence (MSF) and CellTiter-Glo® luminescent assays. […]

[5] = test system: L. amazonensis axenic amastigotes; assay: alamarBlue viability / concentration-response assay, axenic amastigotes; format: cell-based, Leishmania amazonensis; settings: 72 h, axenic amastigotes, read-out: EC50^72 h against L. amazonensis axenic amastigotes
Procedure: Leishmania amazonensis axenic amastigotes (100 μL, 2×10^6 cells/mL) were added to 96-multiwell plates containing 100 μL of amastigote culture medium with an appropriate compound dilution series. 0.1% DMSO (no drug) served as a positive control (100%), and 5 μM amphotericin B served as a negative growth control (0%). Only internal wells were used to minimize edge effects from evaporation. Axenic amastigotes were incubated at 32° C. with a compound/drug for 72 h prior to measurement. Similarly, the cytotoxicity of each compound was determined against RAW 264.7 cells and HepG2 cell lines, following 72 h incubation at 37° C. (promastigotes at 26° C.).
10% alamarBlue® (Thermo Fisher Scientific) was used to measure the growth of both parasite and mammalian cells. Conversion from a blue oxidized state to a pink reduced state was assessed visually at 6 hr. The fluorescence signal was measured with a BioTek Synergy H1 plate reader (530 nm excitation, 570 nm emission). For bioluminescence assays using L. amazonensisluc, relative luminescence units (RLU) were measured using Britelite Plus (PerkinElmer, USA). Luminescence produced by this luciferase reaction is proportional to the amount of luciferase-expressing, viable L. amazonensisluc. Following five-minute incubation at room temperature, the luminescence was measured with a BioTek Synergy H1 plate reader.
All experiments were conducted as three technical triplicates on the same plate, with at least three independent biological repeats of each plate performed. For all assays, percent growth was expressed as a proportion of the untreated (positive) control (i.e. 100%) and plotted against drug/compound concentration. The concentration was then log10 transformed and EC50 values were determined using nonlinear regression (sigmoidal dose-response/variable slope equation) in GraphPad Prism v5.0 (GraphPad Software, Inc., San Diego, CA).
To identify antileishmanial compounds, a microplate-based alamarBlue® assay was used to quickly triage the 400 drug-like compounds available in the MMV Pathogen Box collection. […] A three-step process was used to screen the Pathogen Box: 1) identify hits against axenic amastigotes, 2) confirm the inhibitory concentrations of these hits against axenic amastigotes, 3) evaluate hits for potency against intracellular parasites using fluorescence and bioluminescence-based intracellular assays. The MMV Pathogen Box resource was tested at two concentrations (5 μM and 1 μM, 72 h endpoint) on axenic amastigotes.
Hits were defined as compounds that, at a concentration of 1 μM, decreased the relative fluorescence intensity signal to ≤70% of that produced by parasites incubated in vehicle (0.06% DMSO) only (FIG. 9).

[6] = test system: intracellular L. amazonensis amastigotes; assay: Intramacrophage bioluminescence assay with luciferase-expressing L. amazonensis; format: cell-based, Leishmania amazonensis; settings: Leishmania amazonensis, RAW264.7, 72 h, read-out: EC50^72 h against intracellular L. amazonensis amastigotes
Procedure: Intracellular EC50s were estimated with L. amazonensisluc parasites. Briefly, RAW 264.7 cells or BM primary Mϕs were starved overnight, then infected with metacyclic promastigotes at a Multiplicity of Infection (MOI) of 15 and incubated for another 24 h at 37° C. The plates containing infected RAW 264.7 cells/BM primary M4s were washed five times with serum-free DMEM. Serially diluted compounds were added, and plates were incubated at 37° C. for 72 hrs. Bioluminescence signal was measured as described above.
RAW 264.7 cells were used to perform a bioluminescence assay with transgenic luciferase-expressing L. amazonensis (FIG. 1C).

With CCc1c(C)nc(-n2nc(C)cc2NC(=O)c2ccccc2SC)[nH]c1=O [MMV676477, N-(1-(5-Ethyl-4-methyl-6-oxo-1,6-dihydropyrimidin-2-yl)-3-methyl-1H-pyrazol-5-yl)-2-(methylthio)benzamide] as the compound, how does the “activity against Trypanosoma brucei (in words)” value [1] read?
Its value is “nanomolar-range cytocidal potency; also recorded: broad activity; also recorded: nanomolar concentrations”.

What about the LD50/EC50 ratio ([2]; intracellular amastigotes) of the same compound?
Its LD50/EC50 ratio is 1.2.

And the “LD50 72 h” value ([2]; intracellular washout, 72 h)?
The value was 620 nM.

And the “activity against Plasmodium falciparum (in words)” value [3]?
Its value is “nanomolar-range cytocidal potency; also recorded: broad activity; also recorded: nanomolar concentrations”.

And the “activity against L. donovani axenic amastigotes (in words)” value [4]?
The value was “broad activity”.

What about the EC50 [5] of the same compound?
Its EC50 is 78 nM.

And the EC50 ([5]; Leishmania amazonensis)?
The EC50 was 79 nM.

What about the EC50 [6] of the same compound?
Its EC50 is 510 nM.

Source: patent US20240139190A1, “NOVEL ANTIPARASITIC COMPOUNDS AND METHODS” (The Board of Regents of The University of Texas System, priority 2019, published 2024)
